≈ marks a conversion by molar mass, not a printed value. Structures can show the parent of a compound that is named as a salt.
Key:
[1] = test system: Nippostrongylus brasiliensis; test: Test 2: activity against roundworms in rats, treatment 24 hours after infection, worm counts 6 days after dosing; assay type: in vivo; details: rats; for inhibition in vivo at 1000 mg/kg / worm damage: Test 2, 1000 mg/kg oral
Procedure: Test 2 -- Rats were infected with 100 Nippostrongylus brasiliensis larvae each, by the subcutaneous route. After 24 hours the rats were randomised and allotted to groups of 5 animals each, ready for treatment. Doses of the test compound were then administered to each group by the oral, subcutaneous and intraperitoneal routes respectively, one group of 10 animals being left untreated as a control. All the rats were killed for post-mortem worm counts 6 days after dosing. The activities, expressed in terms of the percentage reductions in mean worm load of the treated groups or damage to the worms compared with the untreated control group, are given below in Table I.

[2] = test system: Nippostrongylus brasiliensis eggs; test: In vitro activity against roundworms (egg hatching and larvae); assay type: cell-based; details: 96 h, tested at 100, 10, 1 and 0.1 μg/ml, inhibited or delayed hatching of eggs, or killed, retarded growth or reduced activity of larvae during 4 days, read-out: M.I.C. (minimum inhibitory concentration)
Procedure: Compounds of formula I were tested at concentrations of 100 μg/ml, 10 μg/ml, 1 μg/ml and 0.1 μg/ml in small glass containers. If the compound was not soluble in water, a volatile organic medium, e.g. acetone, chloroform, ethanol or methanol was used. An amount of material appropriate for each final concentration was measured and placed in duplicate test containers and if an organic solvent was used it was allowed to evaporate completely. Nippostrongylus brasiliensis eggs were recovered by saturated saline centrifugal flotation from the faeces of rats heavily infected with third stage larvae six days previously. They were washed several times in water and suspended in water in a suitable concentration. From 25-50 eggs were placed in each container and the final volume was made up by the addition of a very dilute aqueous suspension of mouse faeces which served as the growth medium. The minimum inhibitory concentrations of each compound (M.I.C.), shown in the following Table V was the minimum concentration in μg/ml total liquid volume at which it inhibited or delayed hatching of eggs, or at which it killed, retarded growth or reduced activity of larvae during the 4 days after beginning the test.

[3] = test system: influenza virus type A2 /Hong Kong/5/68; assay type: in vivo; details: mice, 250 mg/kg oral 3 hours before and 1 hour after infection; pooled lungs 24 hours after infection; greatest dilution producing agglutination
[4] = test system: Nippostrongylus brasiliensis; test: Test 1: activity against roundworms in rats, treatment 6 days after infection (patent infection), worm counts 48 hours after treatment; assay type: in vivo
Procedure: Test 1 - Rats were infected with 100 Nippostrongylus brasiliensis larvae each, by the subcutaneous route. After 6 days, when the infection was patent, the rats were randomised and alloted to groups of 10 animals each, ready for treatment. One group was used for each dose level of the test compound and, in each experiment, one group was left untreated as a control. All the rats were killed for post-mortem worm counts 48 hours after treatment. The activity, expressed in terms of the percentage reduction in mean worm load of the treated group compared with the untreated group, is shown in Table I.

[5] = test system: Trichostrongylus colubriformis; test: Activity against mature adult stages in lambs, oral treatment (Table III); assay type: in vivo; details: 120 h, 15 mg/kg oral, read-out: Mean percentage reduction in worm burdens, T.colubriformis
Procedure: (§1) ii. 20 Worm-free lambs were each infected with H. contortus (approximately 5,600), T. axei (approximately 9,300) and T. colubriformis (approximately 10,000) infective larvae. After 22 days, 16 lambs were treated orally with 15 mg/kg animal body weight of the 8 test compounds, i.e. 2 lambs per compound, against the mature adult stages of the worms. 27 Days after infection, all 20 lambs were killed for post-mortem worm counts and the burden of each worm species in the 16 treated animals compared with those in the remaining 4 untreated control animals.

Haemonchus contortus [6] = test: as above; assay type: in vivo; details: 120 h, 15 mg/kg oral, read-out: Mean percentage reduction in worm burdens, H.contortus
Procedure: as §1

Trichostrongylus axei [7] = test: as above; assay type: in vivo; details: 120 h, 15 mg/kg oral, read-out: Mean percentage reduction in worm burdens, T.axei
Procedure: as §1

[8] = test system: Trichostrongylus colubriformis; test: Activity against 4th larval stages in lambs, oral treatment (Table II); assay type: in vivo; details: 100 mg/kg oral
Procedure: (§2) i. 9 Worm-free lambs were each infected with H.contortus (approximately 9,000), T. axei (approximately 7,000) and T. colubriformis (approximately 12,000) infective larvae. After 7 days, 4 lambs were treated orally with 100 mg/kg animal body weight of the 2 test compounds, i.e. 2 lambs per compound, against the 4th larval stages of the worms. 23 Days after infection, all 9 lambs were killed for post-mortem worm counts and the burdens of each worm species in the 4 treated animals compared with those in the remaining 5 untreated control animals.

Haemonchus contortus [9] = test: as above; assay type: in vivo; details: 100 mg/kg oral
Procedure: as §2

Trichostrongylus axei [10] = test: as above; assay type: in vivo; details: 100 mg/kg oral
Procedure: as §2

[11] = test system: naturally acquired strongyle infections; test: Effect on faecal egg output in naturally infected sheep (ewes); assay type: in vivo, O. circumcincta, H. contortus and Cooperia spp.; details: 50 mg/kg oral
Procedure: Faecal material from sheep with naturally acquired strongyle infections was incubated for 7 days at 27° C. followed by identification of the infective larvae present. Amongst those species present were O. circumcincta, H. contortus and Cooperia spp.
Egg counts were carried out on individual samples of faeces taken from the animals two and one day previous to dosings.
Egg counts were made using the McMaster technique. If a count by this technique was negative, a positive/negative egg flotation determination was made.
A group of 3 ewes was treated orally with 50 mg/kg animal body weight of test compound and further egg counts made at intervals for 3 weeks after treatment.

[12] = Nippostrongylus brasiliensis, 144 h, read-out: Percentage reduction in N.brasiliensis load
[13] = Nippostrongylus brasiliensis, po, 48 h, Test 1, 1000 mg/kg oral, read-out: Percentage reduction in N.brasiliensis load

| Compound | inhibition in vivo at 1000 mg/kg [1, 12] [%] | worm damage [1] | MIC [2] [µg/mL] | Haemagglutinin titre-treated animals [3] | inhibition in vivo at 15 mg/kg [5] [%] | inhibition in vivo at 15 mg/kg (Haemonchus contortus [6]) [%] | inhibition in vivo at 15 mg/kg (Trichostrongylus axei [7]) [%] | other results |
| --- | --- | --- | --- | --- | --- | --- | --- | --- |
| Nc1ccccc1NC(=S)NC(=O)OCCCl [1-(2-chloroethoxycarbonyl)-3-(2-aminophenyl)thiourea] | 96 | worm damage | 100 (≈ 365 µM) | 1/32 |  |  |  |  |
| CCCCN(C)CC(=O)Nc1ccccc1NC(=S)NC(=O)OCC [1-ethoxycarbonyl-3-(2-N-n-butyl-N-methylaminoacetamidophenyl)thiourea hydrochloride] | 99 | worm damage | 1 | 1/4 |  |  |  | inhibition in vivo at 1000 mg/kg [4, 13]: 86%; worm damage ([4]; Test 1, 1000 mg/kg oral): worm damage |
| CCOC(=O)NC(=S)Nc1cc(NC(=O)OC(C)C)ccc1NC(C)=O [1-ethoxycarbonyl-3-(2-acetamido-5-isopropoxycarbonylaminophenyl)thiourea] |  |  |  | 1/256 |  |  |  |  |
| CCOC(=O)NC(=S)Nc1ccc(F)cc1N [1-ethoxycarbonyl-3-(2-amino-4-fluorophenyl)thiourea] | 50 | worm damage | 1 (≈ 3.89 µM) | 1/32 |  |  |  |  |
| COC(=O)NC(=S)Nc1ccc(NC(=O)OC(C)C)cc1NC(C)=O [1-methoxycarbonyl-3-(2-acetamido-4-isopropoxycarbonylaminophenyl)thiourea] |  |  |  | 1/256 |  |  |  |  |
| COC(=O)NC(=S)Nc1cc(NC(=O)OC(C)C)ccc1NC(C)=O [1-methoxycarbonyl-3-(2-acetamido-5-isopropoxycarbonylaminophenyl)thiourea] |  |  |  | 1/128 |  |  |  |  |
| CCCCc1ccc(NC(C)=O)c(NC(=S)NC(=O)OC)c1 [1-methoxycarbonyl-3-(2-acetamido-5-n-butylphenyl)thiourea] | 99 | worm damage | 0.1 (≈ 0.309 µM) |  | 95 | 82.1 | 98.2 | worm damage ([4]; Test 1, 1000 mg/kg oral): worm damage |
| COC(=O)NC(=S)Nc1ccc(NC(=O)OC(C)C)cc1N [1-methoxycarbonyl-3-(2-amino-4-isopropoxycarbonylaminophenyl)thiourea] | 100 |  | 100 (≈ 306 µM) |  | 83 | 97.7 | 94.6 | worm damage ([4]; Test 1, 500 mg/kg oral): worm damage |
| COC(=O)NC(=S)Nc1ccc(NC(=O)OC)cc1N [1-methoxycarbonyl-3-(2-amino-4-methoxycarbonylaminophenyl)thiourea] | 100 |  | 100 (≈ 335 µM) | 1/512 |  |  |  | inhibition in vivo at 250 mg/kg ([1]; Nippostrongylus brasiliensis, 144 h, Test 2, 250 mg/kg oral, read-out: Percentage reduction in N.brasiliensis load): 99%; inhibition in vivo at 500 mg/kg ([1]; Nippostrongylus brasiliensis, 144 h, Test 2, 500 mg/kg oral, read-out: Percentage reduction in N.brasiliensis load): 99%; inhibition in vivo at 1000 mg/kg [4, 13]: 100% |
| CCCCc1ccc(NC(=S)NC(=O)OC)c(N)c1 [1-methoxycarbonyl-3-(2-amino-4-n-butylphenyl)thiourea] |  |  | 0.1 (≈ 0.355 µM) |  |  |  |  | Mean percentage reduction in worm burdens, T.colubriformis [8]: 100%; Mean percentage reduction in worm burdens, H.contortus (Haemonchus contortus [9]): 100%; Mean percentage reduction in worm burdens, T.axei (Trichostrongylus axei [10]): 99.5%; inhibition in vivo at 500 mg/kg ([4]; Nippostrongylus brasiliensis, po, 48 h, Test 1, 500 mg/kg oral, read-out: Percentage reduction in N.brasiliensis load): 75%; worm damage ([4]; Test 1, 500 mg/kg oral): worm damage |
| COC(=O)NC(=S)Nc1ccccc1N [1-methoxycarbonyl-3-(2-aminophenyl)thiourea] |  |  | 0.1 (≈ 0.444 µM) |  |  |  |  | Mean faecal egg count/gm. faeces ([11]; 1 day after treatment): 450 /gm. faeces; Mean faecal egg count/gm. faeces ([11]; 2 days before treatment (baseline)): 250 /gm. faeces; Mean faecal egg count/gm. faeces ([11]; 4 days after treatment): 250 /gm. faeces; Mean faecal egg count/gm. faeces ([11]; 6 days after treatment): 50 /gm. faeces; Mean faecal egg count/gm. faeces ([11]; 8 days after treatment): 134 /gm. faeces; Mean faecal egg count/gm. faeces ([11]; 15 days after treatment): 75 /gm. faeces; Mean faecal egg count/gm. faeces ([11]; 18 days after treatment): 100 /gm. faeces; Mean faecal egg count/gm. faeces ([11]; 20 days after treatment): 50 /gm. faeces; Mean faecal egg count/gm. faeces ([11]; 22 days after treatment): 50 /gm. faeces; Percentage reduction in N.brasiliensis load ([4]; Test 1, 1000 mg/kg oral): 99%; worm damage ([4]; Test 1, 1000 mg/kg oral): worm damage |
| CCCCc1ccc(NC(=O)C2CC2)c(NC(=S)NC(=O)OC)c1 [1-methoxycarbonyl-3-(2-cyclopropylcarbonamido-5-n-butylphenyl)thiourea] |  |  | 0.1 (≈ 0.286 µM) | 1/128 |  |  |  |  |
| COC(=O)NC(=S)Nc1ccc(NC(=O)OC(C)C)cc1NC=O [1-methoxycarbonyl-3-(2-formamido-4-isopropoxycarbonylaminophenyl)thiourea] |  |  |  |  | 29.6 | 40.1 | 70.8 |  |
| COC(=O)NC(=S)Nc1ccccc1NC(=O)C[N+](C)(C)C [1-methoxycarbonyl-3-(2-trimethylammoniumacetamidophenyl)thiourea iodide] |  | worm damage | 1 | 1/256 |  |  |  |  |
| COC(=O)NC(=S)Nc1cc(NC(=O)OC(C)C)ccc1NC=O [1-methoxycarbonyl-3-(2formamido-5-isopropoxycarbonylaminophenyl)thiourea] |  |  |  | 1/256 |  |  |  |  |
| CCCCc1ccc(NC(=S)NC(=O)OC)c(NC(=O)C2CC2)c1 [1-methoxycarbonyl-3-(4-n-butyl-2-cycloproplycarbonamidophenyl)thiourea] |  |  | 0.1 (≈ 0.286 µM) |  | 27.1 | 58.4 | 57.6 |  |
| CCCCc1ccc(NC(=S)NC(=O)OC)c(NC=O)c1 [1-methoxycarbonyl-3-(4-n-butyl-2-formamidophenyl)thiourea] |  |  | 0.1 (≈ 0.323 µM) |  | 36.9 | 84.3 | 84.2 |  |
| CCCCc1ccc(NC(=O)OCC)c(NC(=S)NC(=O)OC)c1 [1-methoxycarbonyl-3-(5-n-butyl-2-ethoxycarbonylaminophenyl)thiourea] | 96 | worm damage | 10 (≈ 28.3 µM) | 1/64 | 40.1 | 79.6 | 78.6 |  |
| CCCCc1ccc(NC=O)c(NC(=S)NC(=O)OC)c1 [1-methoxycarbonyl-3-(5n-butyl-2-formamidophenyl)thiourea] | 96 | worm damage | 0.1 (≈ 0.323 µM) | 1/32 |  |  |  |  |

Source: patent US4005217A, “Treatment of helminth infections with substituted phenyl-thiourea derivatives” (May & Baker Limited, priority 1970, dated 1977)
